Laboratory results taken from ChEMBL document CHEMBL1126045, “Alanine series of ovine corticotropin releasing factor (oCRF): a structure-activity relationship study” (J Med Chem, 1992).

Biological target: Corticotropin releasing factor receptor (Rattus norvegicus) (UniProt P47866+P35353)
Assay: In vitro ability (peptide) to stimulate ACTH release by rat anterior pituitary cells relative to Ovine corticotropin releasing factor (oCRF).
Assay type: cell-based
Parameters: unit not given here
Settings: Pituitary gland cell

Corticotropin releasing factor receptor (Rattus norvegicus), sequence (P35353 whole entry, looked up): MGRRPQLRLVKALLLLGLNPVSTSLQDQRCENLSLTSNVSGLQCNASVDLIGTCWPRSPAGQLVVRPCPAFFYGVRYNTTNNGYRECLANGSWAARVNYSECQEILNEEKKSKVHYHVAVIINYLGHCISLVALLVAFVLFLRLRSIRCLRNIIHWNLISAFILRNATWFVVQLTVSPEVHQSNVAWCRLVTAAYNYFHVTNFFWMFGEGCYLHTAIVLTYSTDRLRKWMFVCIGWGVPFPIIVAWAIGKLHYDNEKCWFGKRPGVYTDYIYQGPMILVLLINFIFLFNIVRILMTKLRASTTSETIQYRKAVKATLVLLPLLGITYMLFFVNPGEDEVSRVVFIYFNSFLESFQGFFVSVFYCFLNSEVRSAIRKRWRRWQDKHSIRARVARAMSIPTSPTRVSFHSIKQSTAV
Corticotropin releasing factor receptor (Rattus norvegicus), sequence (P47866 whole entry, looked up): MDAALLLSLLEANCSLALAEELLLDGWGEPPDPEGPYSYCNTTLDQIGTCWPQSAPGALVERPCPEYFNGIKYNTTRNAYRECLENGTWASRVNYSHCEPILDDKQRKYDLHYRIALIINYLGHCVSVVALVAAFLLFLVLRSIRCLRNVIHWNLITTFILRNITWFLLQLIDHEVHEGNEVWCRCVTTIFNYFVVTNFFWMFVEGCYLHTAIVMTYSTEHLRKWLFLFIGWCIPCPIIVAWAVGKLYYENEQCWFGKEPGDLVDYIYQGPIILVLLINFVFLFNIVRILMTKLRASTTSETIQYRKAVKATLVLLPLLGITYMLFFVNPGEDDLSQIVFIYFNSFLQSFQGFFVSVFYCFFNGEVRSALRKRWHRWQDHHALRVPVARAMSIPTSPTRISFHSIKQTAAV

Molecule | Relative potency
CC[C@H](C)[C@H](NC(=O)[C@H](C)NC(=O)[C@@H]1CCCN1C(=O)[C@H](CCC(=O)O)NC(=O)[C@H](CCC(N)=O)NC(=O)[C@@H](N)CO)C(=O)N[C@@H](CO)C(=O)N[C@@H](CC(C)C)C(=O)N[C@@H](CC(=O)O)C(=O)N[C@@H](CC(C)C)C(=O)N[C@H](C(=O)N[C@@H](Cc1ccccc1)C(=O)N[C@@H](Cc1c[nH]cn1)C(=O)N[C@@H](CC(C)C)C(=O)N[C@@H](CC(C)C)C(=O)N[C@@H](CCCN=C(N)N)C(=O)N[C@@H](CCC(=O)O)C(=O)N[C@H](C(=O)N[C@@H](CC(C)C)C(=O)N[C@@H](CCC(=O)O)C(=O)N[C@@H](CCSC)C(=O)N[C@H](C(=O)N[C@@H](CCCCN)C(=O)N[C@@H](C)C(=O)N[C@@H](CC(=O)O)C(=O)N[C@@H](CCC(N)=O)C(=O)N[C@@H](CC(C)C)C(=O)N[C@@H](C)C(=O)N[C@@H](CCC(N)=O)C(=O)N[C@@H](CCC(N)=O)C(=O)N[C@@H](C)C(=O)N[C@@H](Cc1c[nH]cn1)C(=O)N[C@@H](CO)C(=O)N[C@@H](CC(N)=O)C(=O)N[C@@H](CCCN=C(N)N)C(=O)N[C@@H](CCCCN)C(=O)N[C@@H](CC(C)C)C(=O)N[C@@H](CC(C)C)C(=O)N[C@@H](CC(=O)O)C(=O)N[C@H](C(=O)N[C@@H](C)C(N)=O)[C@@H](C)CC)[C@@H](C)O)C(C)C)[C@@H](C)O | 0.6
CC[C@H](C)[C@H](NC(=O)[C@H](CC(=O)O)NC(=O)[C@H](CC(C)C)NC(=O)[C@H](CC(C)C)NC(=O)[C@H](CCCCN)NC(=O)[C@H](CCCN=C(N)N)NC(=O)[C@H](CC(N)=O)NC(=O)[C@H](CO)NC(=O)[C@H](Cc1c[nH]cn1)NC(=O)[C@H](C)NC(=O)[C@H](CCC(N)=O)NC(=O)[C@H](CCC(N)=O)NC(=O)[C@H](C)NC(=O)[C@H](CC(C)C)NC(=O)[C@H](CCC(N)=O)NC(=O)[C@H](CC(=O)O)NC(=O)[C@H](C)NC(=O)[C@H](CCCCN)NC(=O)[C@@H](NC(=O)[C@H](CCSC)NC(=O)[C@H](CCC(=O)O)NC(=O)[C@H](CC(C)C)NC(=O)[C@@H](NC(=O)[C@H](CCC(=O)O)NC(=O)[C@H](CCCN=C(N)N)NC(=O)[C@H](CC(C)C)NC(=O)[C@H](CC(C)C)NC(=O)[C@H](Cc1c[nH]cn1)NC(=O)[C@H](Cc1ccccc1)NC(=O)[C@@H](NC(=O)[C@H](C)NC(=O)[C@H](CC(=O)O)NC(=O)[C@H](CC(C)C)NC(=O)[C@H](CO)NC(=O)[C@@H](NC(=O)[C@@H]1CCCN1C(=O)[C@@H]1CCCN1C(=O)[C@H](CCC(=O)O)NC(=O)[C@H](CCC(N)=O)NC(=O)[C@@H](N)CO)[C@@H](C)CC)[C@@H](C)O)C(C)C)[C@@H](C)O)C(=O)N[C@@H](C)C(N)=O | 0.006
CC[C@H](C)[C@H](NC(=O)[C@H](CC(=O)O)NC(=O)[C@H](CC(C)C)NC(=O)[C@H](CC(C)C)NC(=O)[C@H](CCCCN)NC(=O)[C@H](CCCN=C(N)N)NC(=O)[C@H](CC(N)=O)NC(=O)[C@H](CO)NC(=O)[C@H](Cc1c[nH]cn1)NC(=O)[C@H](C)NC(=O)[C@H](CCC(N)=O)NC(=O)[C@H](CCC(N)=O)NC(=O)[C@H](C)NC(=O)[C@H](CC(C)C)NC(=O)[C@H](CCC(N)=O)NC(=O)[C@H](CC(=O)O)NC(=O)[C@H](C)NC(=O)[C@H](CCCCN)NC(=O)[C@@H](NC(=O)[C@H](CCSC)NC(=O)[C@H](CCC(=O)O)NC(=O)[C@H](CC(C)C)NC(=O)[C@@H](NC(=O)[C@H](CCC(=O)O)NC(=O)[C@H](CCCN=C(N)N)NC(=O)[C@H](CC(C)C)NC(=O)[C@H](CC(C)C)NC(=O)[C@H](Cc1c[nH]cn1)NC(=O)[C@H](Cc1ccccc1)NC(=O)[C@@H](NC(=O)[C@H](CC(C)C)NC(=O)[C@H](C)NC(=O)[C@H](CC(C)C)NC(=O)[C@H](CO)NC(=O)[C@@H](NC(=O)[C@@H]1CCCN1C(=O)[C@@H]1CCCN1C(=O)[C@H](CCC(=O)O)NC(=O)[C@H](CCC(N)=O)NC(=O)[C@@H](N)CO)[C@@H](C)CC)[C@@H](C)O)C(C)C)[C@@H](C)O)C(=O)N[C@@H](C)C(N)=O | 0.004
CC[C@H](C)[C@H](NC(=O)[C@H](CC(=O)O)NC(=O)[C@H](CC(C)C)NC(=O)[C@H](CC(C)C)NC(=O)[C@H](CCCCN)NC(=O)[C@H](CCCN=C(N)N)NC(=O)[C@H](CC(N)=O)NC(=O)[C@H](CO)NC(=O)[C@H](Cc1c[nH]cn1)NC(=O)[C@H](C)NC(=O)[C@H](CCC(N)=O)NC(=O)[C@H](CCC(N)=O)NC(=O)[C@H](C)NC(=O)[C@H](CC(C)C)NC(=O)[C@H](CCC(N)=O)NC(=O)[C@H](CC(=O)O)NC(=O)[C@H](C)NC(=O)[C@H](CCCCN)NC(=O)[C@@H](NC(=O)[C@H](CCSC)NC(=O)[C@H](CCC(=O)O)NC(=O)[C@H](CC(C)C)NC(=O)[C@@H](NC(=O)[C@H](CCC(=O)O)NC(=O)[C@H](CCCN=C(N)N)NC(=O)[C@H](CC(C)C)NC(=O)[C@H](CC(C)C)NC(=O)[C@H](Cc1c[nH]cn1)NC(=O)[C@H](Cc1ccccc1)NC(=O)[C@@H](NC(=O)[C@H](CC(C)C)NC(=O)[C@H](CC(=O)O)NC(=O)[C@H](CC(C)C)NC(=O)[C@H](CO)NC(=O)[C@H](C)NC(=O)[C@@H]1CCCN1C(=O)[C@@H]1CCCN1C(=O)[C@H](CCC(=O)O)NC(=O)[C@H](CCC(N)=O)NC(=O)[C@@H](N)CO)[C@@H](C)O)C(C)C)[C@@H](C)O)C(=O)N[C@@H](C)C(N)=O | 0.004
H-SQEPPISLDLTFALLREVLEMTKADQLAQQAHSNRKLLDIA-NH2 | 0.14
H-SQEPPISLDLTFHLLAEVLEMTKADQLAQQAHSNRKLLDIA-NH2 | 0.02
H-SQEPPISLDLTFHLLREALEMTKADQLAQQAHSNRKLLDIA-NH2 | 0.5
H-SQEPPISLDLTFHLLREVAEMTKADQLAQQAHSNRKLLDIA-NH2 | 0.09
H-SQEPPISLDLTFHLLREVLEATKADQLAQQAHSNRKLLDIA-NH2 | 0.4
H-SQEPPISLDLTFHLLREVLEMTKAAQLAQQAHSNRKLLDIA-NH2 | 1.7
H-SQEPPISLDLTFHLLREVLEMTKADALAQQAHSNRKLLDIA-NH2 | 1.1
H-SQEPPISLDLTFHLLREVLEMTKADQLAQQAASNRKLLDIA-NH2 | 4.5
H-SQEPPISLDLTFHLLREVLEMTKADQLAQQAHANRKLLDIA-NH2 | 2
H-SQEPPISLDLTFHLLREVLEMTKADQLAQQAHSARKLLDIA-NH2 | 1.1
H-SQEPPISLDLTFHLLREVLEMTKADQLAQQAHSNAKLLDIA-NH2 | 0.02
H-SQEPPISLDLTFHLLREVLEMTKADQLAQQAHSNRALLDIA-NH2 | 0.8
H-SQEPPISLDLTFHLLREVLEMTKADQLAQQAHSNRKALDIA-NH2 | 0.7
H-SQEPPISLDLTFHLLREVLEMTKADQLAQQAHSNRKLLAIA-NH2 | 1.8
H-SQEPPISLDLTFHLLREVLEMTKADQLAQQAHSNRKLLDAA-NH2 | 1.7

Other lines, results leading:

Relative potency | Molecule
0.4 | CC[C@H](C)[C@H](NC(=O)[C@H](CC(=O)O)NC(=O)[C@H](CC(C)C)NC(=O)[C@H](CC(C)C)NC(=O)[C@H](CCCCN)NC(=O)[C@H](CCCN=C(N)N)NC(=O)[C@H](CC(N)=O)NC(=O)[C@H](CO)NC(=O)[C@H](Cc1c[nH]cn1)NC(=O)[C@H](C)NC(=O)[C@H](CCC(N)=O)NC(=O)[C@H](CCC(N)=O)NC(=O)[C@H](C)NC(=O)[C@H](CC(C)C)NC(=O)[C@H](CCC(N)=O)NC(=O)[C@H](CC(=O)O)NC(=O)[C@H](C)NC(=O)[C@H](CCCCN)NC(=O)[C@@H](NC(=O)[C@H](CCSC)NC(=O)[C@H](CCC(=O)O)NC(=O)[C@H](CC(C)C)NC(=O)[C@@H](NC(=O)[C@H](CCC(=O)O)NC(=O)[C@H](CCCN=C(N)N)NC(=O)[C@H](CC(C)C)NC(=O)[C@H](CC(C)C)NC(=O)[C@H](Cc1c[nH]cn1)NC(=O)[C@H](Cc1ccccc1)NC(=O)[C@H](C)NC(=O)[C@H](CC(C)C)NC(=O)[C@H](CC(=O)O)NC(=O)[C@H](CC(C)C)NC(=O)[C@H](CO)NC(=O)[C@@H](NC(=O)[C@@H]1CCCN1C(=O)[C@@H]1CCCN1C(=O)[C@H](CCC(=O)O)NC(=O)[C@H](CCC(N)=O)NC(=O)[C@@H](N)CO)[C@@H](C)CC)C(C)C)[C@@H](C)O)C(=O)N[C@@H](C)C(N)=O
1 | CC[C@H](C)[C@H](NC(=O)[C@H](CC(=O)O)NC(=O)[C@H](CC(C)C)NC(=O)[C@H](CC(C)C)NC(=O)[C@H](CCCCN)NC(=O)[C@H](CCCNC(=N)N)NC(=O)[C@H](CC(N)=O)NC(=O)[C@H](CO)NC(=O)[C@H](Cc1cnc[nH]1)NC(=O)[C@H](C)NC(=O)[C@H](CCC(N)=O)NC(=O)[C@H](CCC(N)=O)NC(=O)[C@H](C)NC(=O)[C@H](CC(C)C)NC(=O)[C@H](CCC(N)=O)NC(=O)[C@H](CC(=O)O)NC(=O)[C@H](C)NC(=O)[C@H](CCCCN)NC(=O)[C@@H](NC(=O)[C@H](CCSC)NC(=O)[C@H](CCC(=O)O)NC(=O)[C@H](CC(C)C)NC(=O)[C@@H](NC(=O)[C@H](CCC(=O)O)NC(=O)[C@H](CCCNC(=N)N)NC(=O)[C@H](CC(C)C)NC(=O)[C@H](CC(C)C)NC(=O)[C@H](Cc1cnc[nH]1)NC(=O)[C@H](Cc1ccccc1)NC(=O)[C@@H](NC(=O)[C@H](CC(C)C)NC(=O)[C@H](CC(=O)O)NC(=O)[C@H](CC(C)C)NC(=O)[C@H](CO)NC(=O)[C@@H](NC(=O)[C@@H]1CCCN1C(=O)[C@@H]1CCCN1C(=O)[C@H](CCC(=O)O)NC(=O)[C@H](CCC(N)=O)NC(=O)[C@@H](N)CO)[C@@H](C)CC)[C@@H](C)O)C(C)C)[C@@H](C)O)C(=O)N[C@@H](C)C(N)=O
0.006 | H-SQEPPISLDLTAHLLREVLEMTKADQLAQQAHSNRKLLDIA-NH2
0.09 | H-SQEPPISLDLTFHLAREVLEMTKADQLAQQAHSNRKLLDIA-NH2
0.6 | H-SQEPPISLDLTFHLLRAVLEMTKADQLAQQAHSNRKLLDIA-NH2
3.4 | H-SQEPPISLDLTFHLLREVLEMAKADQLAQQAHSNRKLLDIA-NH2
0.28 | H-SQEPPISLDLTFHLLREVLEMTAADQLAQQAHSNRKLLDIA-NH2
0.8 | H-SQEPPISLDLTFHLLREVLEMTKADQLAQAAHSNRKLLDIA-NH2
